Key:
[1] = tested on: SK-Hep-1, a liver adenocarcinoma (hepatoma); experiment: Cell Proliferation ELISA, BudR (colorimetric), hepatoma cells; type: cell-based, human; conditions: for inhibition of hepatoma proliferation, single agent: ADR 0.02-0.33 micromoles, furanone 0.001-0.01% compared at same absolute concentration; for suppression of hepatoma proliferation, adjuvant combined with ADR: adjuvant 0.5 mM AA equivalents, one application of ADR, two of adjuvant, prominent at ADR 0.003-0.03 micromolar
Description: (§1) Calcium ascorbate (CA), calcium threonate (CT), 4-hydroxy-5-methyl-3(2H)-furanone (FR) and Ester-C (EC) are obtained from Inter-Cal Corporation, Prescott, Ariz., USA. Tissue culture grade Ascorbic acid (AA) is from Sigma Chemical Company, St. Louis, Mo., USA. The composition of calcium ascorbate (calcium di-(L-ascorbate) dihydrate) is made by sequentially dissolving the salt in sterile water to obtain master-stock solutions of equal strength (1% w/v). Aqueous solution of calcium ascorbate plus calcium threonate plus 4-hydroxy-5-methyl-3(2H)-furanone (CA/CT/FR) is prepared at ratio of 85/7.5/7.5. For comparative analysis, stock solutions containing identical ascorbic acid (AA) equivalents are used. All master stocks are stored at room temperature during the course of these procedures. From these, 10× strength working stocks are prepared by serial dilution on the day of use and are applied to cells in microtiter plates as described below.
Adriamycin (doxorubicin) is obtained from Sigma Chemical Company (St. Louis, Mo.). Stock solutions are made by dissolving adriamycin (ADR) in sterile water and DTIC in water or dilute acetic acid solution (0.01N). Stocks are stored frozen at −10 C. and thawed prior to use. Serial dilutions are made in sterile water to obtain 10× strength solutions and one tenth volume of this is applied to cells at the time of treatment.
Target human tumor-derived lines consist of SK-Hep-1, a liver adenocarcinoma ([…]) and Malme-3M, a malignant melanoma. All seed cultures are obtained from ATCC, Manassas, Va., USA and are propagated/maintained in serum-containing growth medium in a humidified incubator of 5% CO2/95% air. SK-Hep-1 cells are grown in Eagle's minimum essential medium (EMEM) in Earle's salts plus non-essential amino acids supplemented with 10% FBS plus antibiotics and Malme-3M cells are cultured in McCoy's medium supplemented with 15% fetal bovine serum (FBS) plus antibiotics.
For treatment, exponentially growing cells are seeded at a density of 1×10^4 cells per well of 96-well microtiter plate in 0.1-0.2 ml of growth medium. After overnight cell attachment at 37 C., duplicate wells are exposed to various treatments by direct application of one-tenth volume of 10× strength solution. For treatments involving chemotherapeutic agent, one-tenth volume of serial dilutions of adriamycin (0.0006-3.0 micromolar) are applied to wells followed by application of ascorbate-containing composition (adjuvant) or sterile water (control). The adjuvant treatment is repeated every other day or on the third day (as applicable) without change of growth medium. Untreated controls receive an equivalent amount of sterile water. After 2-3 treatments with adjuvant, cells are labeled with BudR as described below. (In some experiments, wells are refed an equal volume of growth medium prior to additional of BudR. This gives a higher amount of BrdU incorporation into DNA relative to no refluiding).
For DNA labeling, the following procedure is adapted and modified from the Cell Proliferation ELISA, BudR (Colorimetric) assay of Roche Diagnostics, Indianapolis, Ind., USA: Each treated well is exposed to one-tenth volume of 10× BrdU-containing medium and reincubated at 37 C. overnight (15-20 hrs.). One set of control wells is exposed to medium only (no BudR) to obtain an absorbance-control (substrate only) blank for the assay. After the labeling period, the culture medium is removed and the cells are fixed and DNA denatured in one step by adding FixDenat (30 min at RT). Then, FixDenat is removed, the anti-BrdU-peroxidase reagent is added and incubation continues for 90 min at RT. After removal of the latter, the plate is washed 3 times, followed by addition of substrate solution. The plate is kept at RT until color development became sufficient for photometric detection ([…]). At this time, reaction is stopped by addition to each well of 25 microliter 1M sulfuric acid followed by mixing for approximately 1 min on the shaker. […]

[2] = tested on: normal human liver (WRL 68); experiment: Cell death detection ELISA (histone-DNA complexes), normal liver cells; type: cell-based; conditions: 0.01-0.0001% furanone, three sequential treatments
Procedure: (§2) Four human tumor cell types, shown previously to be sensitive to combinations of mineral ascorbate plus metabolites are evaluated. These lines consist of: (i) a liver hepatoma (SK-Hep-1), (ii) a malignant melanoma (Malme-3M), (iii) a neurobastoma (SK-N-MC) and (iv) a colon carcinoma (T84). Non-malignant cell types consist of: normal human liver (WRL 68), normal skin fibroblasts (Malme-3) and normal retinal epithelial cells (ARPE-19). The tumor-derived lines, normal liver and skin fibroblasts are obtained from the American Type Culture Collection (ATCC). The ARPE-19 cell line is a gift from a colleague at California Institute for Medical Research. Cells are grown and maintained in culture, in a humidified incubator of 5% CO2/95% air. […]
(§3) Subconfluent monolayers of 1-2 old, adherent cultures (seeded at a density of 10,000 cells per well in a 96-well plate) are exposed to 0.1 volume of serial dilutions (10× concentrated solutions) of the furanone and the plate is returned to the incubator. […] The supernatant (cytoplasmic lysate) is saved and in aliquot (20 microliters) was assayed for the presence of histone-DNA complexes (nucleosomal fragments) by photometric detection (absorbance at 405-410 nm) using cell death detection Elisa assay (Roche Diagnostics).

[3] = tested on: liver hepatoma (SK-Hep-1); experiment: Cell death detection ELISA, hepatoma cells; type: cell-based, human
Procedure: as §2, §3

[4] = tested on: malignant melanoma (Malme-3M); experiment: Cell death detection ELISA, melanoma cells; type: cell-based, human
Procedure: as §2, §3

[5] = tested on: normal skin fibroblasts (Malme-3); experiment: Cell death detection ELISA, normal skin fibroblasts; type: cell-based, human; conditions: two furanone preparations
Procedure: as §2, §3

[6] = tested on: colon carcinoma (T84); experiment: Cell death detection ELISA, colon carcinoma cells; type: cell-based, human; conditions: up to a max. of 0.01% furanone
Procedure: as §2, §3

[7] = tested on: normal retinal epithelial cells (ARPE-19); experiment: Cell death detection ELISA, normal retinal epithelial cells; type: cell-based, human; conditions: up to max of 0.003% furanone
Procedure: as §2, §3

[8] = tested on: neurobastoma (SK-N-MC); experiment: Cell death detection ELISA, neuroblastoma cells; type: cell-based, human; conditions: up to max of 0.001% furanone
Procedure: as §2, §3

[9] = tested on: Malme-3M, a malignant melanoma; experiment: Cell Proliferation ELISA, BudR (colorimetric), melanoma cells; type: cell-based, human; conditions: furanone at 0.1% as printed; FIG. 21
Description: as §1, with “below. […]” for “below.”
For DNA labeling, the following procedure is adapted and modified from the Cell Proliferation ELISA, BudR (Colorimetric) assay of Roche Diagnostics, Indianapolis, Ind., USA: Each treated well is exposed to one-tenth volume of 10× BrdU-containing medium and reincubated at 37 C. overnight (15-20 hrs.). One set of control wells is exposed to medium only (no BudR) to obtain an absorbance-control (substrate only) blank for the assay. […]

## COc1cccc2c1C(=O)c1c(O)c3c(c(O)c1C2=O)C[C@@](O)(C(=O)CO)C[C@@H]3O[C@H]1C[C@H](N)[C@H](O)[C@H](C)O1 [ADR, Adriamycin (doxorubicin), reference compound]
[1]
  inhibition of hepatoma proliferation, single agent: dose-dependent inhibition of hepatoma proliferation

## O=C1O[C@H]([C@@H](O)CO)C(O)=C1O [AA, Ascorbic acid, reference compound]
[1]
  suppression of hepatoma proliferation, adjuvant combined with ADR: greater suppression of hepatoma proliferation than ADR alone

## CC1=C(O)C(=O)CO1 [furanone, 4-hydroxy-5-methyl-3(2H)-furanone]
[2]
  maximal change in cell-death rate: less than 0.3 logs
[3]; furanone 0.001-0.01% (0.08-0.88 mM), three sequential treatments
  cell death in hepatoma cells: sharp rises in cell death
[3]; hepatoma cells
  minimal concentration required to produce 2-fold change in apoptosis rate: < 0.001%
[4]
  minimal concentration required to produce 2-fold change in apoptosis rate: 0.003%
[5]
  increase in apoptosis: < 0.3 log
[6]
  change in rate of cellular apoptosis over untreated control: < 0.5 log
[7]
  change in death rates: does not elicit significant changes in death rates
[8]
  change in death rates: does not elicit significant changes in death rates
[1]; 0.01% furanone alone
  reduction in cellular DNA synthesis compared to untreated control: ~4.6 fold
[1]; ADR 0.007 micromolar, adjuvant 0.01%
  enhancement of the inhibitory effect of ADR: 7 fold
[1]
  inhibition of hepatoma proliferation, single agent: more effective in inhibiting hepatoma proliferation than either the triple ascorbate/metabolite mix or Ester-C®
[1]; two independent experiments
  minimal dose of furanone required to produce 2-fold enhancement of ADR inhibition: ~0.0016%
[9]
  enhancement of the inhibitory effect of ADR in melanoma cells: consistently enhances the inhibitory effect of ADR at all concentrations of the chemotherapeutic drug

## calcium di-(L-ascorbate) dihydrate
[1]; 0.033% adjuvant, low doses of ADR
  improvement of anti-proliferation activity of ADR: consistently improve the anti-proliferation activity of low doses of ADR
[1]; dihydrate
  suppression of hepatoma proliferation, adjuvant combined with ADR: greater suppression of hepatoma proliferation than ADR alone
[1]; listed as Calcium ascorbate, dihydrate
  suppression of hepatoma proliferation, adjuvant combined with ADR: more effective than ascorbic acid
